Data from publication PMC4871426, “The Regulation of para-Nitrophenol Degradation in Pseudomonas putida DLL-E4” (PLoS ONE, 2016).

Key:
PnpA = target: T1, PnpA (Pseudomonas putida, UniProt C6FI48); experiment: colour change of PNP oxidation by purified enzyme; type: biochemical; details: conditions as in an earlier paper
T1 construct: His-tagged (pET-pnpAhis), expressed in E. coli BL21(DE3), purified
T1 sequence (C6FI48 1-418): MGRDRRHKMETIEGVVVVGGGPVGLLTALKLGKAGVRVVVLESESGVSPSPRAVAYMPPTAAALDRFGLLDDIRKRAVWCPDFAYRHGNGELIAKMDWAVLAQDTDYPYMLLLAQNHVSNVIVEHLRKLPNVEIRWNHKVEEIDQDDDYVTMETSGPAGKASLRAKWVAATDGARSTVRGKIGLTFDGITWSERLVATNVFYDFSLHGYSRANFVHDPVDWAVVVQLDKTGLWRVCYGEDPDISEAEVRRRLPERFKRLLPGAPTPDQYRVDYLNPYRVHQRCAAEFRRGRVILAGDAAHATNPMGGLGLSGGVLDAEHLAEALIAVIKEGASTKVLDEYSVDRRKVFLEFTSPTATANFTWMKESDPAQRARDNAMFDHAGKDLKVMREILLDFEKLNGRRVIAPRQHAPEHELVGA

PnpC1C2 = target: T2, PnpC1C2 (Pseudomonas putida, UniProt C6FI41); experiment: UV spectral change, absorption increase at […] nm; type: biochemical; details: conditions as in an earlier paper
T2 construct: gene pnpC2; two-subunit complex, C-terminal His tag, expressed in E. coli BL21(DE3), Ni-NTA purified; with hydroquinone dioxygenase alpha subunit (hydroquinone 1,2-dioxygenase small subunit)
T2 sequence (C6FI41 1-339): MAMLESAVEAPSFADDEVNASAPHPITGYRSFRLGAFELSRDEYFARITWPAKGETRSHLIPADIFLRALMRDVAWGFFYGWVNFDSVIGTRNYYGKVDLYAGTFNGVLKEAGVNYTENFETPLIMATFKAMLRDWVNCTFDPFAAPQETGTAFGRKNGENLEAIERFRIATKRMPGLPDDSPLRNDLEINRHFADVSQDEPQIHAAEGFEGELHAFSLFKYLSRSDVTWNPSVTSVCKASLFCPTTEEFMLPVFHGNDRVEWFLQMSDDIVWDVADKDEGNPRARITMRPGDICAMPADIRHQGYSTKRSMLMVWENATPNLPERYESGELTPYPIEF
T2 sequence (C6FI40 1-164 partner): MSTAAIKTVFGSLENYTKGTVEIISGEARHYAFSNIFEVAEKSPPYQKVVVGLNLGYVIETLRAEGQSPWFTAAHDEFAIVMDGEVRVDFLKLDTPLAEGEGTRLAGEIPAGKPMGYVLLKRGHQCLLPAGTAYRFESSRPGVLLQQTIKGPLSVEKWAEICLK

Row | Structure (SMILES) | colour change of PNP oxidation by purified enzyme (PnpA) | UV spectral change, absorption increase at 320 nm (PnpC1C2)
1 | O=[N+]([O-])c1ccc(O)cc1 [para-nitrophenol] | only PnpA had the ability to oxidize PNP | 
2 | Oc1ccc(O)cc1 [hydroquinone] |  | PnpC1C2 and PnpC1C2b both transformed HQ into γ-hydroxymuconic semialdehyde in vitro
